Test results from patent publication US20260159539.
Read-outs that look alike come from different tables or passages of the source.

Q: For CCn1c(-c2cc(N3CCN(C(=O)OCc4ccccc4)CC3)cnc2[C@H](C)OC)c2c3cc(ccc31)-c1cc(cc(O[Si](C(C)C)(C(C)C)C(C)C)c1)C[C@H](NC(=O)OC(C)(C)C)C(=O)N1CCC[C@H](N1)C(=O)OCC(F)(F)C2, which ring closure, isolated yield (from CCn1c(-c2cc(N3CCN(C(=O)OCc4ccccc4)CC3)cnc2[C@H](C)OC)c(CC(F)(F)CO)c2cc(-c3cc(C[C@H](NC(=O)OC(C)(C)C)C(=O)N4CCC[C@@H](C(=O)O)N4)cc(O[Si](C(C)C)(C(C)C)C(C)C)c3)ccc21, ester bond, 18-membered ring, EDCI/HOBt/DIEA, DCM, 32.0 mM, 25.0 °C, 16.0 h, 2 steps) is on record?
A: Its ring closure, isolated yield is 75%.

Q: Which ring closure, isolated yield (from COC(=O)[C@H](Cc1cc(O)cc(I)c1)NC(=O)[C@H](C(C)C)N(C)C(=O)[C@H]1CCN(C(=O)OC(C)(C)C)[C@@H]1COS(=O)(=O)c1ccc(C)cc1, ether bond, 14-membered ring, K2CO3/KI, DMF, 12.2 mM, 80.0 °C, 2.0 h) does the source give for COC(=O)[C@@H]1Cc2cc(I)cc(c2)OC[C@@H]2[C@H](CCN2C(=O)OC(C)(C)C)C(=O)N(C)[C@@H](C(C)C)C(=O)N1 here?
A: The ring closure, isolated yield was 66%.

Q: With COC(=O)[C@@H]1Cc2cc(Br)cc(c2)CC[C@@H]2[C@H](CCN2C(=O)OC(C)(C)C)C(=O)N(C)[C@@H](C(C)C)C(=O)N1 as the compound, how does the ring closure, isolated yield (from COC(=O)[C@@H](N)Cc1cc(Br)cc(CC[C@@H]2[C@@H](C(=O)N(C)[C@H](C(=O)O)C(C)C)CCN2C(=O)OC(C)(C)C)c1, amide bond, 14-membered ring, HATU/DIEA, DMF, 16.0 mM, 25.0 °C, 1.0 h, 2 steps) read?
A: Its ring closure, isolated yield is 34%.

Q: With CCn1c(-c2cc(OCc3ccccc3)cnc2[C@H](C)OC)c2c3cc(ccc31)-c1cc(cc(O[Si](C(C)C)(C(C)C)C(C)C)c1)C[C@H](NC(=O)OC(C)(C)C)C(=O)N1CCC[C@H](N1)C(=O)OCC(C)(C)C2 as the compound, how does the ring closure, isolated yield (from CCn1c(-c2cc(OCc3ccccc3)cnc2[C@H](C)OC)c(CC(C)(C)CO)c2cc(-c3cc(C[C@H](NC(=O)OC(C)(C)C)C(=O)N4CCC[C@@H](C(=O)O)N4)cc(O[Si](C(C)C)(C(C)C)C(C)C)c3)ccc21, ester bond, 18-membered ring, EDCI/HOBt/DIPEA, DCM, 9.8 mM, 25.0 °C, 16.0 h, 4 steps) read?
A: Its ring closure, isolated yield is 67%.

Q: For CCn1c(-c2cc(Oc3cccnc3)cnc2[C@H](C)OC)c2c3cc(ccc31)-c1cc(cc(O[Si](C(C)C)(C(C)C)C(C)C)c1)C[C@H](NC(=O)OC(C)(C)C)C(=O)N1CCC[C@H](N1)C(=O)OCC(C)(C)C2, which ring closure, isolated yield (from CCn1c(-c2cc(Oc3cccnc3)cnc2[C@H](C)OC)c(CC(C)(C)CO)c2cc(-c3cc(C[C@H](NC(=O)OC(C)(C)C)C(=O)N4CCC[C@@H](C(=O)O)N4)cc(O[Si](C(C)C)(C(C)C)C(C)C)c3)ccc21, ester bond, 18-membered ring, EDCI/HOBt/DIPEA, DCM, 9.9 mM, 25.0 °C, 12.0 h, 4 steps) is on record?
A: The ring closure, isolated yield was 67%.

Q: Which ring closure, isolated yield (from CO[C@@H](C)c1ncc(C2CCN(C(=O)OCc3ccccc3)CC2)cc1-c1c(CC(C)(C)CO)c2cc(-c3cc(C[C@H](NC(=O)OC(C)(C)C)C(=O)N4CCC[C@@H](C(=O)O)N4)cc(O[Si](C(C)C)(C(C)C)C(C)C)c3)ccc2n1CC(F)(F)F, ester bond, 18-membered ring, EDCI/HOBt/DIEA, DCM, 8.4 mM, 25.0 °C, 16.0 h, 3 steps) does the source give for CO[C@@H](C)c1ncc(C2CCN(C(=O)OCc3ccccc3)CC2)cc1-c1c2c3cc(ccc3n1CC(F)(F)F)-c1cc(cc(O[Si](C(C)C)(C(C)C)C(C)C)c1)C[C@H](NC(=O)OC(C)(C)C)C(=O)N1CCC[C@H](N1)C(=O)OCC(C)(C)C2 here?
A: Its ring closure, isolated yield is 42%.

Q: Which ring closure, isolated yield (ether bond, 14-membered ring) does the source give for “tert-butyl (3aS,6S,9S,15S,32aS)-6-isopropyl-21-(2-((S)-1-methoxyethyl)-5-(4-(oxetan-3-yl)piperazin-1-yl)pyridin-3-yl)-5,19,19-trimethyl-4,7,10,16-tetraoxo-22-(2,2,2-trifluoroethyl)-2,3,3a,4,5,6,7,8,9,10,13,14,15,16,18,19,20,22,32,32a-icosahydro-1H,12H-11,15-epimino-23,25-etheno-9,28-methano-26,30-(metheno)dipyrrolo[2,3-c:3′,4′-v][1,18]dioxa[6,9,12]triazacyclotriacontine-1-carboxylate” here?
A: The ring closure, isolated yield was 76%.

Q: For CCn1c(-c2cc(N3CCN(C(=O)OCc4ccccc4)CC3)cnc2[C@H](C)OC)c2c3nc(ccc31)-c1cc(cc(O[Si](C(C)C)(C(C)C)C(C)C)c1)C[C@H](NC(=O)OC(C)(C)C)C(=O)N1CCC[C@H](N1)C(=O)OCC(C)(C)C2, which ring closure, isolated yield (from CCn1c(-c2cc(N3CCN(C(=O)OCc4ccccc4)CC3)cnc2[C@H](C)OC)c(CC(C)(C)CO)c2nc(-c3cc(C[C@H](NC(=O)OC(C)(C)C)C(=O)N4CCC[C@@H](C(=O)O)N4)cc(O[Si](C(C)C)(C(C)C)C(C)C)c3)ccc21, ester bond, 18-membered ring, EDCI/HOBt/DIEA, DCM, 32.0 mM, 25.0 °C, 16.0 h, 2 steps) is on record?
A: Its ring closure, isolated yield is 42%.

Q: Which ring closure, isolated yield (from C=C[C@@H]1[C@@H](C(=O)N(C)[C@H](C(=O)N[C@@H](Cc2nc(Br)nn2C=C)C(=O)OCC)C(C)C)CCN1C(=O)OC(C)(C)C, rcm bond, 13-membered ring, Grubbs G2/Ti(OiPr)4, DCM, 15.3 mM, 45.0 °C, 12.0 h) does the source give for CCOC(=O)[C@@H]1Cc2nc(Br)nn2/C=C/[C@@H]2[C@H](CCN2C(=O)OC(C)(C)C)C(=O)N(C)[C@@H](C(C)C)C(=O)N1 here?
A: Its ring closure, isolated yield is 27%.

Q: With CCn1c(-c2cc(N3CCN(C4CC4)CC3)cnc2[C@H](C)OC)c(CC(C)(C)CO)c2cc(-c3cc4cc(c3)C[C@@H](C(=O)OC)NC(=O)[C@H](C(C)C)N(C)C(=O)[C@H]3CCCN(C(C)=O)N3CC4)ccc21 as the compound, how does the ring closure, isolated yield (from CCn1c(-c2cc(N3CCN(C4CC4)CC3)cnc2[C@H](C)OC)c(CC(C)(C)CO)c2cc(-c3cc(CCN4[C@@H](C(=O)O)CCCN4C(C)=O)cc(C[C@H](NC(=O)[C@@H](NC)C(C)C)C(=O)OC)c3)ccc21, amide bond, 14-membered ring, COMU/DIPEA, DMF, 54.0 mM, 25.0 °C, 1.0 h, 2 steps) read?
A: Its ring closure, isolated yield is 42%.

Q: For CCc1c(-c2cc(N3CCN(C(=O)OCc4ccccc4)CC3)cnc2[C@H](C)OC)n2c3cc(ccc13)-c1cc(cc(O[Si](C(C)C)(C(C)C)C(C)C)c1)C[C@H](NC(=O)OC(C)(C)C)C(=O)N1CCC[C@H](N1)C(=O)OCC(C)(C)C2, which ring closure, isolated yield (from CCc1c(-c2cc(N3CCN(C(=O)OCc4ccccc4)CC3)cnc2[C@H](C)OC)n(CC(C)(C)CO)c2cc(-c3cc(C[C@H](NC(=O)OC(C)(C)C)C(=O)N4CCC[C@@H](C(=O)O)N4)cc(O[Si](C(C)C)(C(C)C)C(C)C)c3)ccc12, ester bond, 18-membered ring, EDCI/HOBt/DIEA, DCM, 8.8 mM, 25.0 °C, 16.0 h, 2 steps) is on record?
A: The ring closure, isolated yield was 48%.

Q: Which ring closure, isolated yield (from C=Cc1sc(Br)nc1C[C@H](NC(=O)[C@H](C(C)C)N(C)C(=O)[C@H]1CCN(C(=O)OC(C)(C)C)[C@@H]1C=C)C(=O)OCC, rcm bond, 13-membered ring, Grubbs G2/Ti(OiPr)4, DCM, 28.3 mM, 45.0 °C, 16.0 h) does the source give for CCOC(=O)[C@@H]1Cc2nc(Br)sc2C=C[C@@H]2[C@H](CCN2C(=O)OC(C)(C)C)C(=O)N(C)[C@@H](C(C)C)C(=O)N1 here?
A: The ring closure, isolated yield was 20%.

Q: For CCn1c(-c2cc(N3CCN(C(=O)OCc4ccccc4)CC3)cnc2[C@H](C)OC)c2c3cc(ccc31)-c1cc(cc(O[Si](C(C)C)(C(C)C)C(C)C)c1)C[C@H](NC(=O)OC(C)(C)C)C(=O)N1CCC[C@H](N1)C(=O)OCC(C)(C)C2, which ring closure, isolated yield (from CCn1c(-c2cc(N3CCN(C(=O)OCc4ccccc4)CC3)cnc2[C@H](C)OC)c(CC(C)(C)CO)c2cc(-c3cc(C[C@H](NC(=O)OC(C)(C)C)C(=O)N4CCC[C@@H](C(=O)O)N4)cc(O[Si](C(C)C)(C(C)C)C(C)C)c3)ccc21, ester bond, 18-membered ring, EDCI/HOBt/DIEA, DCM, 9.3 mM, 25.0 °C, 16.0 h) is on record?
A: Its ring closure, isolated yield is 63%.

Q: For COC(=O)[C@@H]1Cc2cc(Cl)cc(c2)CCN2[C@H](CC[C@H]2C(=O)N(C)C)C(=O)N(C)[C@@H](C(C)C)C(=O)N1, which ring closure, isolated yield (from COC(=O)[C@@H](N)Cc1cc(Br)cc(CCN2[C@@H](C(=O)N(C)[C@H](C(=O)O)C(C)C)CC[C@H]2C(=O)N(C)C)c1, amide bond, 14-membered ring, HATU/DIEA, DMF, 17.1 mM, 25.0 °C, 1.0 h, 2 steps) is on record?
A: Its ring closure, isolated yield is 44%.
